Key:
Conditions in all cases: Canis lupus familiaris
[1] = system: Canis familiaris; experiment: Beta-adrenergic blocking activity in anesthetized dog, by the inhibition of isoproterenol -induced bronchodilatation after iv administration; No effect at dose up to 1 to 3 mg/kg; assay type: functional, organism-based
[2] = system: Canis familiaris; experiment: Beta-adrenergic blocking activity in anesthetized dog, by the inhibition of isoproterenol -induced hypotension after iv administration; No effect at dose up to 1 to 3 mg/kg iv; assay type: functional, organism-based
[3] = system: Canis familiaris; experiment: Beta-adrenergic blocking activity in anesthetized dog, by the inhibition of isoproterenol -induced tachycardia after iv administration; No effect at dose up to 1 to 3 mg/kg iv; assay type: functional, organism-based
[4] = system: Canis familiaris; experiment: Beta-adrenergic blocking activity in anesthetized dog, by the inhibition of isoproterenol -induced bronchodilatation after iv administration; No effect at dose up to 1 to 3 mg/kg iv; assay type: functional, organism-based
[5] = system: Canis familiaris; experiment: Beta-adrenergic blocking activity in anesthetized dog, by the inhibition of isoproterenol -induced bronchodilatation after iv administration; assay type: functional
[6] = system: Canis familiaris; experiment: Beta-adrenergic blocking activity in anesthetized dog, by the inhibition of isoproterenol -induced hypotension after iv administration; assay type: functional
[7] = system: Canis familiaris; experiment: Beta-adrenergic blocking activity in anesthetized dog, by the inhibition of isoproterenol -induced tachycardia after iv administration; assay type: functional

SMILES	ED50 [1]	ED50 [2]	ED50 [3]	ED50 [4]	ED50 [5] [µg/kg]	ED50 [6] [µg/kg]	ED50 [7] [µg/kg]
CC(C)(C)NCC(O)COc1nsnc1N(CCO)CC(=O)O (configuration not stated)	No effect	No effect	No effect				
O=C(O)C(O)COc1nsnc1N1CCOCC1 (configuration not stated)		No effect	No effect	No effect			
CC(C)(C)NCC(O)COc1nsnc1NCCO (configuration not stated)					5.4	19.9	38.1
CC(C)(C)NC[C@H](O)COc1nsnc1N1CCOCC1 [TIMOLOL]					0.9	2.8	5.5
